Assay results reported in patent US20250195510A1, “NOVEL METHODS” (priority 2022, published 2025).

Assays:
[1] = tested on: Serum cytokine concentration; experiment: Serum cytokine protein (Multiplex MSD V-Plex) after LPS and lumateperone; type: in vivo, mouse
Procedure: All other reagents are obtained in the highest purity available from Sigma-Aldrich (St. Louis, MO) unless otherwise noted. […] Sigma-Aldrich, ref #0127: B8) diluted in 0.9% injectable saline while control group animals receive injections of all vehicles matching the experimental conditions. […] Tissue Collection. […] Rats are euthanized 18 hours after LPS injection for sample collection. Hippocampi from mice and rats are rapidly dissected under RNAse-free conditions and placed in 1.5 mL Eppendorf tubes. When appropriate, samples are snap frozen in liquid nitrogen prior to storage at −80° C. until further analysis. […] Multiplex Assays. […] All samples are run in duplicates or triplicates according to manufacturer instructions and analyzed with MSD Discovery Workbench software (Meso Scale Diagnostics). […] An additional experimental group receiving an injection with lumateperone alone is included as an additional control. Protein concentration is measured using the Multiplex MSD assay V-Plex technology. Results are expressed in pg/mL, except for IL-6, which is measured in ng/mL.

Corticosterone = experiment: Serum corticosterone (ELISA) after acute restraint stress; type: in vivo, mouse; conditions: restraint stress 2 h + Luma 3 mg/kg IP; control 22.65, stressed 238.5
Procedure: Restraint Stress Protocol.
Using similar procedures as described above, serum corticosterone levels and hippocampal Cldn5 mRNA expression are measured as well (corticosterone is measured using a commercial ELISA kit).

Sprague-Dawley rats [2] = experiment: Female urine sniffing test (FUST), LPS-induced anhedonia; type: in vivo, rat; conditions: LPS 1 mg/kg SC
Description: All other reagents are obtained in the highest purity available from Sigma-Aldrich (St. Louis, MO) unless otherwise noted. […] Sigma-Aldrich, ref #0127: B8) diluted in 0.9% injectable saline while control group animals receive injections of all vehicles matching the experimental conditions. […] Behavioral Evaluation. […] Reward Sniffing Test (also known also as female urine sniffing test (FUST)): In this anhedonia-based assay, rats are brought to a well-ventilated testing room under dim lighting. A sterile cotton-tipped applicator is attached to one wall in the home cage for 1 hour to habituate rats to this new object. For the 2 phases of the 5 minute test, rats are first exposed to a new cotton tip dipped in sterile water as a control that is removed at the end of the 5 minutes; 45 minutes later, another cotton tip previously dipped into fresh rat urine collected from females of the same strain is attached to the cage wall. Male behavior is video recorded and latency to first sniff of the cotton tip and total time spent sniffing the cotton-tipped applicator are determined. In a pilot study, a dose response curve is conducted with varying doses of LPS to select an optimal dose for inducing an anhedonic response in rats. […] SC). […] Control rats are administered saline instead of LPS and vehicle instead of lumateperone. Anhedonia is assessed using FUST (female urine sniffing test) and measuring latency to sniff the reward combined with time spent sniffing the reward. Latency sniffing water is used as a control. The results are shown in the table below (time in seconds) with outliers removed using the MAD Method: […]

Sprague-Dawley rats [3] = experiment: Home cage feeding test (HCFT); type: in vivo, rat; conditions: naïve rats, Luma 1 mg/kg IP days 1 and 3; control 6.0
Description: Novelty Suppressed Feeding Test (NSFT). This test measures consumption of a familiar food in a novel environment, relying on rodents' aversion to eating in a novel environment after a period of food deprivation ([…] and Dulawa, “Identifying fast-onset antidepressants using rodent models,” Mol. Psychiatry 22:656-665 (2017)). Rats are food-deprived overnight and placed in an open field (76.5×76.5×40 cm^3) with a small amount of food pellets (6 pellets total). At the time of the test, rats are exposed to the open field for the first time (novelty) and allowed to explore it for a maximum of 15 minutes under red light. The latency for the animal to approach the food pellets and take its first bite is manually scored. A home cage feeding test (HCFT) is performed afterwards to ensure latency measured in NSFT is not a matter of difference in hunger. A home cage food intake analysis evaluated the amount of food eaten (in grams) over a period of 10 minutes following the end of the entire test session.

Sprague-Dawley rats [4] = experiment: Open Field Test (OFT), locomotion; type: in vivo, rat
Procedure: Behavioral Evaluation. All behavioral tests are performed in the morning with adult male Sprague-Dawley rats (n=9-11 per group for the experiments with LPS, and n=13-14 per group for the naïve rats).
Open Field Test (OFT). Rats are placed in an open field box (76.5×76.5×40 cm^3) under dim lighting and locomotor activity over a 10 minute period is measured using ANY-Maze Software (Stoelting Co., Wood Dale, IL).

**Q.** What does the source list for `CN1CCN2c3c(cccc31)[C@@H]1CN(CCCC(=O)c3ccc(F)cc3)CC[C@@H]12` [Lumateperone, 4-((6bR,10aS)-3-methyl-2,3,6b,9,10,10a-hexahydro-1H-pyrido[3′,4′: 4,5]pyrrolo[1,2,3-de]quinoxaline-8 (7H)-yl)-1-(4-fluorophenyl)-1-butanone]?
**A.** Serum IL-1b concentration ([1]; LPS 500 μg/kg + Luma 3 mg/kg, LPS alone 6.27): 2.69 pg/mL; Serum IL-6 concentration ([1]; LPS 500 μg/kg + Luma 3 mg/kg, LPS alone 14.52): 1.49 ng/mL; Serum TNF-alpha concentration ([1]; LPS 500 μg/kg + Luma 3 mg/kg, LPS alone 335.3): 56.33 pg/mL; Serum IL-10 concentration ([1]; LPS 500 μg/kg + Luma 3 mg/kg, LPS alone 980.4): 1014.3 pg/mL; Serum IL-6 concentration ([1]; Luma 3 mg/kg alone, no LPS, saline only 0.51): 0.09 ng/mL; Serum IL-1b concentration ([1]; Luma 3 mg/kg alone, no LPS, saline only 1.32): 1.47 pg/mL; Serum TNF-alpha concentration ([1]; Luma 3 mg/kg alone, no LPS, saline only 14.08): 9.38 pg/mL; Serum IL-10 concentration ([1]; Luma 3 mg/kg alone, no LPS, saline only 24.80): 48.93 pg/mL; Serum concentration Corticosterone (Corticosterone): 167.3 ng/mL; FUST Time sniffing reward (Sprague-Dawley rats [2]; Luma 1 mg/kg IP 24 h before and 24 h after LPS, control 16.99, LPS + Vehicle 11.11): 17.38 s; FUST Latency sniffing reward (Sprague-Dawley rats [2]; Luma 1 mg/kg IP 24 h before and 24 h after LPS, control 28.00, LPS + Vehicle 164.2): 68.13 s; FUST Latency sniffing water (Sprague-Dawley rats [2]; control test, Luma 1 mg/kg IP before and after LPS, control 190.56, LPS + Vehicle 274.27): 207.60 s; Control HCFT food eaten (Sprague-Dawley rats [3]): 6.0 g; OFT locomotion (Sprague-Dawley rats [4]; naïve rats, Luma 1 mg/kg IP days 1 and 3, control 17.2): 32.8 m; OFT locomotion (distance travelled) (Sprague-Dawley rats [4]; open field track length, rats, LPS 1 mg/kg SC + Luma 1 mg/kg IP, control 13.29, LPS + Vehicle 12.81): 12.27 meters
